The target of this assay is T1, Na^+ /H^+ exchanger (Rattus norvegicus, UniProt P26431).
T1 construct: endogenous in cells; host or cells: thymocytes freshly isolated from the thymus of a male SD (Sprague-Dawley) rat
The assay can be described thus: Inhibitory activity on Na^+ /H^+ exchange in cells (thymocyte swelling in sodium propionate medium). The format is cell-based. The conditions noted are these: apparent Ki, Lineweaver-Burk plot; rate of swelling of thymocytes (male SD strain); sodium-propionate medium pH 6.8; 0.1% DMSO; 3-5 concentrations. Here is the method: [2] Inhibitory activity on Na^+ /H^+ exchange in cells
Procedure was carried out according to a similar manner to the method described in Enzymology 173, 777 (1989).
One male SD strain weighing 250-300 g was sacrificed with the blow on the head. Then, the thymus was removed into ice-cold NaCl medium (140 mM sodium chloride, 1 mM potassium chloride, 1 mM calcium chloride, 1 mM magnesium chloride, 10 mM glucose and 20 mM N-2-hydroxyethylpiperazine-N'-2-ethanesulfonic acid (HEPES) - - - pH 7.3), cut in small fragments, and transferred to glass homogenizer. The cells were dissociated by gentle strokes, and the resulting suspension was filtrated through six layers of surgical gauze and the filtrate was centrifuged at 4° C. at 1000 g for 5 minutes. The pellet was resuspended in RPMI 1640 medium (pH 7.3) at room temperature to adjust final cell concentration (1×10^7 cells/ml).
This method detects the swelling that accompanies activation of Na^+ /H^+ exchanger in cells incubated with sodium propionate. Propionic acid rapidly penetrates through the membrane. […]
Cell sizing and counting were performed electrically with the Coulter Counter-Channelyzer (AT-II). […] Rate of Swelling (volume/min.) was measured by using 3-5 concentrations of test compound. Then, apparent Ki value of test compound was calculated by using Line weaver-Burk plot.

Where only a bound is given, the exact number is not on record here.

T1 sequence (P26431 whole entry): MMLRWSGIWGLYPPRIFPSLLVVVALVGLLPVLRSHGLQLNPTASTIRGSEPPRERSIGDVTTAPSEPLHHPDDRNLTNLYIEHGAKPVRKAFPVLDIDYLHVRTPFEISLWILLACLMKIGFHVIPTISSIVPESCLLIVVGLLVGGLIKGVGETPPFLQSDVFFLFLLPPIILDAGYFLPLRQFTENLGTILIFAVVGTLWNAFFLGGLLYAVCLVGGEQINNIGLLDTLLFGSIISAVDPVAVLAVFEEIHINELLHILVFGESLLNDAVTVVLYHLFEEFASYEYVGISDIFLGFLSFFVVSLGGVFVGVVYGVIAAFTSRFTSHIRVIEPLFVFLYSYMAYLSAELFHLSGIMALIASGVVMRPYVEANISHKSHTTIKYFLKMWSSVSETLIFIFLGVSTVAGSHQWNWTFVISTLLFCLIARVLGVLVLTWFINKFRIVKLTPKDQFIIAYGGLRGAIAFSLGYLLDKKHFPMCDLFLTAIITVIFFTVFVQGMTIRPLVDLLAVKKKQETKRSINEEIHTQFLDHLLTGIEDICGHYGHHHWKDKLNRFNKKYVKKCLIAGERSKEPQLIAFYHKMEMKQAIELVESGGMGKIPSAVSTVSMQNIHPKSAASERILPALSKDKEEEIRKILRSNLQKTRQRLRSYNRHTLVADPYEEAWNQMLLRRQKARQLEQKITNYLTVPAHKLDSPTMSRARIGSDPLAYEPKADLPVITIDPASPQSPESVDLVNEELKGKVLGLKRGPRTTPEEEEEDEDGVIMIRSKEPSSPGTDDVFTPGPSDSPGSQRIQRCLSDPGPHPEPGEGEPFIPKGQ

On to `CS(=O)(=O)c1cc(C(=O)N=C(N)N)cc(-n2cccc2)c1` [Test compound (a), 2-[3-Methylsulfonyl-5-(pyrrol-1-yl)benzoyl]guanidine], for which the Ki is under 100 nM.

The record behind these values is US5824691A, “Guanidine derivatives as inhibitors of Na^+ /H^+ exchange in cells” (Fujisawa Pharmaceutical Co., Ltd., priority 1993, dated 1998).
